Reference: US20220265817A1, “THERAPEUTIC COMPOSITIONS AND METHODS FOR TREATING HEPATITIS B” (priority 2017, published 2022)
pEC50: −log10 of the molar value.

System: HBV rcDNA in HepDE19 cells
Assay: HepDE19 cell culture system, rcDNA quantitation using bDNA assay, MacSynergy II
Format: cell-based, human hepatoma cell line
Conditions: for AVERAGE % INHIBITION (rcDNA): 4 replicates, SIRNA-NP ng/mL by row: r8 25, r9 8.333, r10 2.778, r11 0.926, r12 0.309, r13 0; for ADDITIVE INHIBITION: expected from additive interaction, SIRNA-NP ng/mL by row: r30 25, r31 8.333, r32 2.778, r33 0.926, r34 0.309, r35 0
Method: In vitro combination studies were conducted using the method of Prichard and Shipman (Prichard M N, and Shipman C Jr., Antiviral Research, 1990, 14 (4-5), 181-205; and Prichard M N, et. al., MacSynergy II). HepDE19 cell culture system is a HepG2 (human hepatocarcinoma) derived cell line that supports HBV DNA replication and cccDNA formation in a tetracycline (Tet)-regulated manner and produces HBV rcDNA and a detectable reporter molecule dependent on the production and maintenance of cccDNA (Guo et al 2007. J. Virol 81:12472-12484). HepDE19 (50,000 cells/well) were plated in 96 well collagen-coated tissue-culture treated microtiter plates in DMEM/F12 medium supplemented with 10% fetal bovine serum, 1% penicillin-streptomycin and 1 μg/ml tetracycline and incubated in a humidified incubator at 37° C. and 5% CO2 overnight. Next day, the cells were switched to fresh medium without tetracycline and incubated for 4 hrs at 37° C. and 5% CO2. […] The two inhibitors were tested both singly as well as in combinations in a checkerboard fashion such that each concentration of inhibitor A was combined with each concentration of inhibitor B to determine their combination effects on inhibition of rcDNA production. Following a 7 day-incubation of cells with compound combinations, the level of rcDNA present in the inhibitor-treated wells was measured using a Quantigene 2.0 bDNA assay kit (Affymetrix, Santa Clara, Calif.) with HBV specific custom probe set and manufacturers instructions. […] The RLU data from the single compound treated cells were analyzed using XL-Fit module in Microsoft Excel to determine EC50 values using a 4-parameter curve fitting algorithm. Concurrently, the effect of compounds on cell viability was assessed using replicate plates, plated at a density of 5,000 cells/well and incubated for 4 days, to determine the ATP content as a measure of cell viability using the cell-titer glo reagent (CTG; Promega Corporation, Madison, Wis.) as per manufacturer's instructions.
In vitro combination studies were conducted using the method of Prichard and Shipman (Prichard M N, Shipman C, Jr., Antiviral Res, 14, 181-205 (1990)). The HepDE19 cell line was developed as described in Guo et al. (Guo et al., J Virol, 81, 12472-12484 (2007)). It is a human hepatoma cell line stably transfected with the HBV genome, and which can express HBV pregenomic RNA and support HBV rcDNA (relaxed circular DNA) synthesis in a tetracycline-regulated manner. HepDE19 cells were plated in 96 well tissue-culture treated microtiter plates in DMEM/F12 medium supplemented with 10% fetal bovine serum+1% penicillin-streptomycin without tetracycline and incubated in a humidified incubator at 37° C. and 5% CO2 overnight. […] The two inhibitors were tested both singly as well as in combinations in a checkerboard fashion such that each concentration of inhibitor A was combined with each concentration of inhibitor B to determine their combination effects on inhibition of rcDNA production. Following a 48 hour-incubation, the level of rcDNA present in the inhibitor-treated wells was measured using a bDNA assay (Affymetrix) with HBV specific custom probe set and manufacturers instructions. […] Concurrently, the effect of inhibitor combinations on cell viability was assessed using replicate plates that were used to determine the ATP content as a measure of cell viability using the Cell-TiterGlo reagent (Promega) as per manufacturer's instructions.
In vitro combination studies were conducted using the method of Prichard and Shipman (1990) (Prichard M N, Shipman C, Jr. 1990. A three-dimensional model to analyze drug-drug interactions. Antiviral Res 14:181-205 AND Prichard M N. 1992. MacSynergy II, University of Michigan).

`C=C1[C@H](CO)[C@@H](O)C[C@@H]1n1cnc2c(=O)[nH]c(N)nc21` [Entecavir] was tested, and the “AVERAGE % INHIBITION (rcDNA)” value (ETV 0.016 nM) was −43.72%, the “AVERAGE % INHIBITION (rcDNA)” value (ETV 0.031 nM) was −50.07% and the “AVERAGE % INHIBITION (rcDNA)” value (ETV 0.063 nM) was −30.26%. The “AVERAGE % INHIBITION (rcDNA)” value (ETV 0.125 nM) was −23.47%, the “AVERAGE % INHIBITION (rcDNA)” value (ETV 0.250 nM) was −21.25% and the “AVERAGE % INHIBITION (rcDNA)” value (ETV 1.000 nM) was 41.71%. The “AVERAGE % INHIBITION (rcDNA)” value (ETV 2.000 nM) was 58.35%, the “AVERAGE % INHIBITION (rcDNA)” value (ETV 4.000 nM) was 69.99% and the pEC50 (Hepatitis B virus, HepDE19, rcDNA by bDNA assay, ETV, read-out: Inhibitor B EC50) was 8.75. For the same compound, the “ADDITIVE INHIBITION” value (ETV 0.015625 nM) was −43.72%, the “ADDITIVE INHIBITION” value (ETV 0.03125 nM) was −50.07% and the “ADDITIVE INHIBITION” value (ETV 0.0625 nM) was −30.26%. For the same compound, the “ADDITIVE INHIBITION” value (ETV 0.125 nM) was −23.47%, the “ADDITIVE INHIBITION” value (ETV 0.25 nM) was −21.25% and the “ADDITIVE INHIBITION” value (ETV 1 nM) was 41.71%. For the same compound, the “ADDITIVE INHIBITION” value (ETV 2 nM) was 58.35% and the “ADDITIVE INHIBITION” value (ETV 4 nM) was 69.99%.
